How the values were obtained:
[1] = molecular target: T1, aggregated amylin (amyloid) (Homo sapiens, UniProt P10997); test: Inhibition of binding of Thioflavin T to amyloid derived from amylin; settings: Thioflavin T 5 μmol/L
T1 construct: Amylin (human) (manufactured by Wako); purchased Wako
T1 sequence (P10997 34-70 limits assumed): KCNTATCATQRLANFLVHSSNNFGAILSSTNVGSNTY
Protocol: Amylin is an amyloid accumulating in pancreas of type II diabetes.
(1) Amylin (human) (manufactured by Wako) was dissolved in phosphate buffer (pH 7.4) and shaken at 37° C. for 72 hours, to obtain a 1 mg/mL suspension of aggregated amylin (hereinafter referred to as amyloid suspension in this Example).
(2) According to the method described in a literature (Naiki, H., et al., Laboratory
(3) The amyloid suspension was dissolved in 50 mM phosphate buffer (pH 7.4) at a concentration of amylin of 15 μM.
(4) Samples in which each compound for evaluation and amyloid were dissolved in a 50 mM phosphate buffer (pH 7.4) at final concentrations shown in Table 9 were prepared.
(5) A sample in which 100 μL of 50 mM phosphate buffer (pH 7.4) and 50 μL of 50 mM glycin-NaOH buffer were mixed was made as a blank, and subjected to the same procedure as in (4) and used for a calculation of inhibition ratio.
(6) The microplate filled with the sample solutions was left to stand still at room temperature for 30 hours.
(7) Using the fluorescence strength measured above in (6), the following formula (6): […]
was used to determine the inhibition ratio.

[2] = molecular target: T2, amylin amyloid (Homo sapiens, UniProt P10997); test: In vitro binding of labeled compound to amylin amyloid (glass fiber filter); settings: amylin amyloid 0.8 μg/mL, 22° C., 3 hours
T2 construct: Amylin (human) (manufactured by Wako); purchased Wako
T2 sequence (P10997 34-70 limits assumed): T1 sequence (P10997 34-70 limits assumed)
Protocol: (1) Using methods described in Examples 29 and 30, a 1 mg/mL suspension of aggregated amylin was prepared (hereinafter referred to as amyloid suspension in this Example) was prepared.
(§1) (8) A solution of Compound 1 which was synthesized by the method above in Example 3 was prepared (radioactivity of 500 MBq/mL), and diluted with a 0.1% bovine serum albumin-containing phosphate buffer (pH 7.4) to prepare a solution of 1.2-112.9 pM in terms of the total amount of 2-[4′-(2″-hydroxyethoxy)phenyl]-6-iodoimidazo[1,2-a]pyridine. […]
(§2) (11) The glass fiber filter used for the filtration of the mixture was washed with a 0.1% bovine serum albumin-containing phosphate buffer (0.2 mL×5), and radioactivity of the glass fiber filter was measured with an autowell gamma system (manufactured by Aloka, Type: ARC-7001).
(12) From the measurement results of (11), relation between the amount of Compound 1 binding to amyloid and addition amount of amyloid was evaluated. For a non-specific binding, it was determined from a sample in which no amyloid suspension was added above in (9) (Example 36). […]

[3] = molecular target: T3, insulin amyloid (Homo sapiens, UniProt P01308); test: In vitro binding of labeled compound to insulin amyloid (glass fiber filter); settings: insulin amyloid 0.8 μg/mL, 22° C., 3 hours
T3 construct: 5 mg of insulin (manufactured by Sigma Aldrich Japan); purchased Sigma Aldrich Japan
Protocol: Insulin with cross -sheet structure was prepared by the following procedures (2) and (3) which was the method described in the known literature (Burke, M. J. et al., Biochemistry. 11, p. 2435-2439 (1972)) to which a little modification was made.
(2) 5 mg of insulin (manufactured by Sigma Aldrich Japan) was dissolved in 1 mL of deionized water which was adjusted to pH 2 with hydrochloric acid, and the solution was heated at 90° C. for 10 minutes, and then quickly cooled in dry ice/ethanol.
(3) A sample solution of (2) was heated at 90° C. for 5 minutes, and then quickly cooled in dry ice/ethanol. […]
as §1, §2
(12) From the measurement results of (11), relation between the amount of Compound 1 binding to amyloid and addition amount of amyloid was evaluated. […]

T3 sequence (P01308 25-54 limits assumed): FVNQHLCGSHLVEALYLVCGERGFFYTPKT
T3 sequence (P01308 90-110 limits assumed): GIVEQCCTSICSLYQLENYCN

Substance | Inhibition ratio (%) of binding of amyloid (amylin) to Thioflavin T ([1]; compound 1.5 μmol/L) [%] | Inhibition ratio (%) of binding of amyloid (amylin) to Thioflavin T ([1]; compound 15 μmol/L) [%] | Inhibition ratio (%) of binding of amyloid (amylin) to Thioflavin T ([1]; compound 30 μmol/L) [%] | Radioactivity of the glass fiber filter versus amyloid non-added group [2] | Radioactivity of the glass fiber filter versus amyloid non-added group [3]
2-(4′-ethoxyphenyl)-6-[^123I]iodoimidazo[1,2-a]pyridine [Compound 2] | 37.1 | 46.9 | 53.0 | – | –
2-[4′-(2″-hydroxyethoxy)phenyl]-6-[^123I]iodoimidazo[1,2-a]pyridine [Compound 1] | 34.4 | 51.3 | 46.8 | all high compared to the group without amyloid suspension | all high compared to the group without amyloid suspension
2-[4′-(3″-hydroxypropoxy)phenyl]-6-[^123I]iodoimidazo[1,2-a]pyridine [Compound 6] | – | – | – | all high compared to the group without amyloid suspension | all high compared to the group without amyloid suspension
